According to patent publication EP1320377B1, “HLA BINDING PEPTIDES AND THEIR USES” (Epimmune Inc., priority 2000, dated 2011):

Target: B*0702 (Homo sapiens, UniProt P01889)
Assay: Class I molecular binding assay (peptide binding to purified HLA class I molecule)
Details: binding value of the peptide for HLA allele B*0702; kind of value and unit not given

SPALNKMFBQI [Peptide 34.0397]
B*0702: 0.1800
